# According to US20100093777A1 (Takeda Pharmaceutical Company Limited, priority 2007, published 2010):
# Columns and labels:
# [1] = target: T1, Human ACC2 (Nd, N terminal deleted) (Homo sapiens, UniProt O00763); assay: Measurement of ACC2 inhibitory activity (recombinant ACC2 (Nd), malachite green absorbance); assay type: biochemical; conditions: recombinant human ACC2 (Nd) 6.4 μg/ml; 30° C.; 200 μM ATP, 200 μM Acetyl-CoA; absorbance 620 nm
# T1 construct: His tag (from the pFAST-BacHTa vector); own knowledge: N-terminal 6xHis with TEV site; made in house; host or cells: SF-9 insect cells, recombinant baculovirus BAC-ACC2 (Nd)
# Procedure: The ACC2 inhibitory action of the compound of the present invention was evaluated by the following method.
# (§1) Human ACC2 gene was cloned by PCR using a human skeletal muscle cDNA library (Clontech) as a template and Primer 1 and Primer 2 shown below. Primer 1 and Primer 2 were prepared by adding SalI, XbaI restriction enzyme recognition sequences based on the information of the base sequence (Genbank Accession U89344) of human ACC2 gene.
# (§2) PCR was performed using Pyrobest DNA polymerase (TAKARA BIO INC.). The obtained PCR product was cloned to pT7 Blue vector (Novagen) and, after confirmation of the base sequence, digested with restriction enzymes SalI and XbaI. The obtained DNA fragment was inserted into pFAST-BacHTa (Invitrogen) digested with restriction enzymes SalI and XbaI to give expression plasmid ACC2/pFAST-BacHTa.
# PCR was performed using the expression plasmid as a template and Primer 3 and Primer 4 shown below to prepare a plasmid to be used for expression of ACC2 free of mitochondrial targeting sequence.
# as §2, with “Pyrobest-DNA” for “Pyrobest DNA”, “AflII.” for “XbaI.”, “AflII” for “XbaI”, “ACC2mito7/pFAST-BacHTa.” for “ACC2/pFAST-BacHTa.”
# Using the expression plasmid and BAC-TO-BAC Baculovirus Expression System (Invitrogen), virus stock BAC-ACC2 (N terminal deleted (hereinafter Nd)) of recombinant Baculovirus was prepared.
# SF-9 cells (Invitrogen) were inoculated to a medium (2 L) for insect cells (Sf-900IISFM medium (Invitrogen) containing 10% fetal bovine serum (Trace), 50 mg/L Gentamicin (Invitrogen), 0.1% Pluronic F-68 (Invitrogen)) at 0.5×10^6 cells/mL, and cultured with shaking in Wave Bioreactor (Wave) at 27° C., 20 rpm, rocking angle […], oxygen concentration 30%.
# On day 4 of the culture, 3 L of the medium for insect cells was added, the rocking angle was set to 8°, and the cells were cultured. On day 5 of the culture, 100 mL of recombinant Baculovirus BAC-ACC2 (Nd) was added, 5 L of the medium for insect cells was further added, the rocking angle was set to 11°, and the cells were cultured for 3 days. The culture medium was centrifuged at 1000×g for 10 min to give virus-infected cells. The cells were washed with phosphate buffered saline (Invitrogen) and centrifuged under the same conditions. The obtained cells were cryopreserved at −80° C.
# The cryopreserved cells were thawed in ice and suspended in 900 mL of 25 mM HEPES buffer (pH 7.5) containing 10% Glycerol, 0.13 M NaCl, 1 mM EDTA, 25 mM Sodium βGlycerophosphate and 1 mM Sodium Orthovanadate, and supplemented with Complete Protease Inhibitor (Nippon Boehringer Ingelheim Co., Ltd.). The obtained suspension was homogenized 3 times in a polytron homogenizer (Kinematica) at 20,000 rpm for 30 sec. The obtained cell disruption solution was clarified by centrifugation at 31000×g for 60 min, and filtered through a 0.45 μm filter. The filtrate was passed through a column packed with 60 mL of Ni-NTA Super Flow Gel (QUIAGEN) at a flow rate of about 5 mL/min. The column was washed with buffer A (50 mM HEPES (pH 7.5) containing 0.3 M NaCl), further washed with buffer A containing 20 mM Imidazole, and eluted with buffer A containing 100 mM Imidazole. The eluate was concentrated with Vivaspin 20 (Vivascience) with a molecular weight cut off of 30K. The obtained concentrate was dialyzed against 50 mM HEPES (pH 7.5) containing 10 mM MgCl2, 2[…] Dithiothreitol, 10 mM Tripotassium Citrate and 0.3 M NaCl. The inner dialysate was filtered through a 0.22 μm filter to give ACC2 (Nd). The obtained ACC2 (Nd) was cryopreserved at −80° C.
# A test compound was dissolved in dimethyl sulfoxide (DMSO) and the mixture was diluted with an enzyme reaction buffer and the resulting solution (5 μl) was added to each well.
# [2] = target: T2, Human ACC1 (Homo sapiens, UniProt Q13085); assay: Measurement of ACC1 inhibitory activity (recombinant enzyme, malachite green absorbance); assay type: biochemical; conditions: recombinant human ACC1 8 μg/ml; 30° C.; 200 μM ATP, 200 μM Acetyl-CoA; absorbance 620 nm
# T2 construct: His tag (from the pFAST-BacHTc vector); own knowledge: N-terminal 6xHis with TEV site; made in house; host or cells: SF-9 insect cells, recombinant baculovirus BAC-ACC1
# Procedure: The ACC1 inhibitory action of the compound of the present invention was evaluated by the following method.
# as §1, with “ACC1” for “ACC2”, “liver” for “skeletal muscle”, “NotI” for “XbaI”, “sequence” for “sequences”, “U19822)” for “U89344)”
# as §2, with “using a” for “using”, “INC.)” for “INC.).”, “NotI.” for “XbaI.”, “to pFAST-BacHTc” for “into pFAST-BacHTa”, “NotI” for “XbaI”, “ACC1/pFAST-BacHTc.” for “ACC2/pFAST-BacHTa.”
# Using the expression plasmid and BAC-TO-BAC Baculovirus Expression System (Invitrogen), virus stock BAC-ACC1 of recombinant Baculovirus was prepared.
# SF-9 cells (Invitrogen) were inoculated to a medium (1 L) for insect cells (Sf-900IISFM medium (Invitrogen) containing 10% fetal bovine serum (Trace), 50 mg/L Gentamicin (Invitrogen) and 0.1% Pluronic F-68 (Invitrogen)) at 1×10^6 cells/mL, and cultured with shaking at 27° C., 100 rpm in a 2 L Erlenmeyer flask.
# After 24 hr of the culture, recombinant Baculovirus BAC-ACC1 (10 mL) was added, and the cells were further cultured for 3 days. The culture medium was centrifuged at 1000×g for 5 min to give virus-infected cells. The cells were washed with phosphate buffered saline (Invitrogen), and centrifuged under the same conditions, and the obtained cells were cryopreserved at −80° C.
# The cryopreserved cells were thawed in ice and suspended in 100 mL of 25 mM HEPES buffer (pH 7.5) containing 10% Glycerol, 0.13 M NaCl, 1 mM EDTA, 25 mM Sodium β-Glycerophosphate and 1 mM Sodium Orthovanadate, and supplemented with Complete Protease Inhibitor (Nippon Boehringer Ingelheim Co., Ltd.). The obtained suspension was homogenized 3 times in a polytron homogenizer (Kinematica) at 20,000 rpm for 30 sec. The obtained cell disruption solution was clarified by centrifugation at 185700×g for 50 min, and filtered through a 0.45 μm filter. The filtrate was passed through a column packed with 12 mL of Ni-NTA Super Flow Gel (QUIAGEN) at a flow rate of about 5 mL/min. The column was washed with buffer A (50 mM HEPES (pH 7.5) containing 0.3 M NaCl), further washed with buffer A containing 20 mM Imidazole, and eluted with buffer A containing 100 mM Imidazole. The eluate was concentrated with Vivaspin 20 (Vivascience) with a molecular weight cut off of 30K. The obtained concentrate was dialyzed against Sephadex G-25 (Amersham Biosciences, 358 ml) equilibrated with 50 mM HEPES (pH 7.5) containing 10 mM MgCl2, 2 mM Dithiothreitol, 10 mM Tripotassium Citrate and 0.3 M NaCl. The inner dialysate was concentrated with Vivaspin 20 (Vivascience) with a molecular weight cut off of 30K, and the concentrate was filtered through a 0.22 μm filter to give ACC1. The obtained ACC1 was cryopreserved at −80° C.
# ACC1 (0.93 mg/ml) obtained in the above-mentioned (2) was diluted with an enzyme reaction buffer (50 mM HEPES (pH 7.5), 10 mM MgCl2, 10 mM Tripotassium Citrate, 2 mM Dithiothreitol, 0.75 mg/ml Fatty acid free BSA) to concentration of 8 μg/ml, and the mixture was added to each well of 384 well assay plate (Nunc 265196) by 10 μl.
# Thereafter, ACC1 inhibitory rate (%) was measured in the same manner as in the below-mentioned Experimental Example 2-(3), and IC50 value was calculated.
# ACC2 (Nd) (1.1 mg/ml) obtained in the above-mentioned (2) was diluted with an enzyme reaction buffer (50 mM HEPES (pH 7.5), 10 mM MgCl2, 10 mM Tripotassium Citrate, 2 mM Dithiothreitol, 0.75 mg/ml Fatty acid free BSA) to a concentration of 6.4 μg/ml, and the mixture was added to each well of a 384 well assay plate (Nunc 265196) by 10 μl. […]
# T1 sequence (O00763 117-2458 limits assumed, stated change not applied): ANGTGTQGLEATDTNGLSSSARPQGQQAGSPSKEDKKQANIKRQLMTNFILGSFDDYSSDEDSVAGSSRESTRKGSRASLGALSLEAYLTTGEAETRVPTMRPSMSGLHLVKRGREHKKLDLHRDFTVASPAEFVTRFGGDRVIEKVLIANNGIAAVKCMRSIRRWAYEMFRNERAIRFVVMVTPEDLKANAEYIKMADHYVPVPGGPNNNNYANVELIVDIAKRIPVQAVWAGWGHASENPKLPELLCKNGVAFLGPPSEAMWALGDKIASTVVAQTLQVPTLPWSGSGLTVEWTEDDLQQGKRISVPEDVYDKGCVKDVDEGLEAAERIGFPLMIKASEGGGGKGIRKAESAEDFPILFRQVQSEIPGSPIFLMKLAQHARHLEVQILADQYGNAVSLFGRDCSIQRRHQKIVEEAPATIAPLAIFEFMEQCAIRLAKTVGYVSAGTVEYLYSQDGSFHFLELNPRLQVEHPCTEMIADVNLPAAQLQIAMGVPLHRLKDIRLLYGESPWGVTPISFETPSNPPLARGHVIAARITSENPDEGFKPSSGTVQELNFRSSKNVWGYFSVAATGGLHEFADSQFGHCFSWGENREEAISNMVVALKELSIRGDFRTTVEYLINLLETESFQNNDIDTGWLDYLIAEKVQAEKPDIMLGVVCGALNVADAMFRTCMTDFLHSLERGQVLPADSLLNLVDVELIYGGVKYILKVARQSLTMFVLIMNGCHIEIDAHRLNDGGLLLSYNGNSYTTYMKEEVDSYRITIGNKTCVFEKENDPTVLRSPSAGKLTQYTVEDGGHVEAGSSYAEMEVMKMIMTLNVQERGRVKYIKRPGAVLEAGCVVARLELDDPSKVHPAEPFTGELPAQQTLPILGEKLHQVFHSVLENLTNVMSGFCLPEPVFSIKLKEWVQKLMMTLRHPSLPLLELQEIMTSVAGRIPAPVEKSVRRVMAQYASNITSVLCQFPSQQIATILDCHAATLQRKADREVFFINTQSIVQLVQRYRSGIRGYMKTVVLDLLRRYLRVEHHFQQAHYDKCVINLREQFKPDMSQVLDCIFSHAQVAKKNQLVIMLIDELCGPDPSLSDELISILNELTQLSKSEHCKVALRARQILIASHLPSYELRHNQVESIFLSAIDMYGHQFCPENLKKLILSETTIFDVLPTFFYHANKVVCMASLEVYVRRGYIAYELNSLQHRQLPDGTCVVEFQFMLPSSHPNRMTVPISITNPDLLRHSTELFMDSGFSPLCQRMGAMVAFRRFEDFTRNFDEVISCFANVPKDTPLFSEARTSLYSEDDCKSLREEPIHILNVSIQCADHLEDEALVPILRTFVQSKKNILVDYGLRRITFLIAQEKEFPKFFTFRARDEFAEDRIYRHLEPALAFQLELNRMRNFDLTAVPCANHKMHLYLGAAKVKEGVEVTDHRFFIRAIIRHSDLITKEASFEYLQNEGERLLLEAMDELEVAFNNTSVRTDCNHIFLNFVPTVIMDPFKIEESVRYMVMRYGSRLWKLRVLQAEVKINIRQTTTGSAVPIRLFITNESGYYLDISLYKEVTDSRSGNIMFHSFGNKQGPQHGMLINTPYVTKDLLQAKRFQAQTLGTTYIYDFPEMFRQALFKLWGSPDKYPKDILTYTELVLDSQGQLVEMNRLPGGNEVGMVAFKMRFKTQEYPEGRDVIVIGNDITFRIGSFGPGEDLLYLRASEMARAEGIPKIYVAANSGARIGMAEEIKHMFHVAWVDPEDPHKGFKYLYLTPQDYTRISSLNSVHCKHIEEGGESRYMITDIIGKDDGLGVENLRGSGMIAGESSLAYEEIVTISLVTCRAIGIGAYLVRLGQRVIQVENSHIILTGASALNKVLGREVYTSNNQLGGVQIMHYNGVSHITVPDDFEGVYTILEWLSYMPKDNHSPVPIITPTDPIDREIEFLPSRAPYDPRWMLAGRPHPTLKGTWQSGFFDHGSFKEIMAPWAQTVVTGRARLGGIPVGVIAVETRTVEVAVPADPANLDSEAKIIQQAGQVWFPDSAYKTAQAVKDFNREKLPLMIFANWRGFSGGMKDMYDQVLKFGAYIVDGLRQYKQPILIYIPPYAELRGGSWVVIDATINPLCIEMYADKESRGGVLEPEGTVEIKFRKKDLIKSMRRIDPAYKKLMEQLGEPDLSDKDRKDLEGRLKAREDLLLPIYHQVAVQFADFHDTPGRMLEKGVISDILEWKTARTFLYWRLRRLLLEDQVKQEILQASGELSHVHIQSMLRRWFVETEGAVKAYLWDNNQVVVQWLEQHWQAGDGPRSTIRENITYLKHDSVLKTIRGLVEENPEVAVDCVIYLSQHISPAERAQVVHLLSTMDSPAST
IC50 [1],IC50 [2],Structure (SMILES)
1 to 10 nM,,CNC(=O)Nc1sc2nc(C)c(C)cc2c1C(=O)N1CCC(N2CCCC3(C2)CC(C)(C)OC3=O)CC1 (stereo not shown) [Example 74]
1 to 10 nM,10 to 100 nM,"CCNC(=O)Nc1sc2nc(C)ccc2c1C(=O)N1CCC(N2CCCC3(C2)CC(C)(C)OC3=O)CC1 (single isomer, unassigned) [Example 28, N-(3-{[4-(3,3-dimethyl-1-oxo-2-oxa-7-azaspiro[4.5]dec-7-yl)piperidin-1-yl]carbonyl}-6-methylthieno[2,3-b]pyridin-2-yl)-N′-ethylurea]"
1 to 10 nM,10 to 100 nM,"CNC(=O)Nc1sc2nc(C)ccc2c1C(=O)N1CCC(N2CCCC3(C2)CC(C)(C)OC3=O)CC1 (single isomer, unassigned) [Example 27, N-(3-{[4-(3,3-dimethyl-1-oxo-2-oxa-7-azaspiro[4.5]dec-7-yl)piperidin-1-yl]carbonyl}-6-methylthieno[2,3-b]pyridin-2-yl)-N′-methylurea]"
,10 to 100 nM,"CCNC(=O)Nc1sc2nc(C(F)(F)F)ccc2c1C(=O)N1CCC(N2CCCC3(CC(=O)N(C(C)C)C3=O)C2)CC1 (stereo not shown) [Example 96, N-ethyl-N′-[3-{[4-(2-isopropyl-1,3-dioxo-2,7-diazaspiro[4.5]dec-7-yl)piperidin-1-yl]carbonyl}-6-(trifluoromethyl)thieno[2,3-b]pyridin-2-yl]urea]"
,10 to 100 nM,"CNC(=O)Nc1sc2ncccc2c1C(=O)N1CCC(N2CCCC3(C2)SC(=O)N(C(C)C)C3=O)CC1 (stereo not shown) [Example 11, N-(3-{[4-(3-isopropyl-2,4-dioxo-1-thia-3,7-diazaspiro[4.5]dec-7-yl)piperidin-1-yl]carbonyl}thieno[2,3-b]pyridin-2-yl)-N′-methylurea]"
1 to 10 nM,10 to 100 nM,"CNC(=O)Nc1sc2ncccc2c1C(=O)N1CCC(N2CCCC3(C2)CC(C)(C)OC3=O)CC1 (single isomer, unassigned) [Example 14, N-(3-{[4-(3,3-dimethyl-1-oxo-2-oxa-7-azaspiro[4.5]dec-7-yl)piperidin-1-yl]carbonyl}thieno[2,3-b]pyridin-2-yl)-N′-methylurea]"
1 to 10 nM,10 to 100 nM,"CNC(=O)Nc1sc2nc(C)ccc2c1C(=O)N1CCC(N2CCCC3(C2)CC(C)(C)OC3=O)CC1 (stereo not shown) [Example 78, N-(3-{[4-(3,3-dimethyl-1-oxo-2-oxa-7-azaspiro[4.5]dec-7-yl)piperidin-1-yl]carbonyl}-6-methylthieno[2,3-b]pyridin-2-yl)-N′-methylurea]"
1 to 10 nM,10 to 100 nM,CCNC(=O)Nc1sc2nc(C)c(C)cc2c1C(=O)N1CCC(N2CCCC3(C2)N=C(C)N(C(C)C)C3=O)CC1 (stereo not shown) [Example 56]
,10 to 100 nM,CCNC(=O)Nc1sc2nc(C)ccc2c1C(=O)N1CCC(N2CCCC3(C2)N=C(C)N(C(C)C)C3=O)CC1 (stereo not shown) [Example 52]
1 to 10 nM,10 to 100 nM,"CCNC(=O)Nc1sc2nc(C)ccc2c1C(=O)N1CCC(N2CCCC3(C2)CC(C)(C)OC3=O)CC1 (stereo not shown) [Example 79, N-(3-{[4-(3,3-dimethyl-1-oxo-2-oxa-7-azaspiro[4.5]dec-7-yl)piperidin-1-yl]carbonyl}-6-methylthieno[2,3-b]pyridin-2-yl)-N′-ethylurea]"
,10 to 100 nM,"CCNC(=O)Nc1sc2nc(C)ccc2c1C(=O)N1CCC(N2CCCC3(CC(=O)N(C(C)C)C3=O)C2)CC1 (single isomer, unassigned) [Example 19, N-ethyl-N′-(3-{[4-(2-isopropyl-1,3-dioxo-2,7-diazaspiro[4.5]dec-7-yl)piperidin-1-yl]carbonyl}-6-methylthieno[2,3-b]pyridin-2-yl)urea]"
,10 to 100 nM,"CNC(=O)Nc1sc2nc(C)ccc2c1C(=O)N1CCC(N2CCCC3(C2)SC(=O)N(C(C)C)C3=O)CC1 (stereo not shown) [Example 31, N-(3-{[4-(3-isopropyl-2,4-dioxo-1-thia-3,7-diazaspiro[4.5]dec-7-yl)piperidin-1-yl]carbonyl}-6-methylthieno[2,3-b]pyridin-2-yl)-N′-methylurea]"
1 to 10 nM,,CCNC(=O)Nc1sc2nc(C)c(C)cc2c1C(=O)N1CCC(N2CCCC3(C2)CC(C)(C)OC3=O)CC1 (stereo not shown) [Example 75]
